From patent US9809598B2 (Merck Patent GmbH, priority 2014, dated 2017)
pIC50: −log10 of the molar value. Where two headings read alike, the source gives them in different places.

Legend:
PARP-1 = biological target: T1, PARP-1 (Homo sapiens, UniProt P09874); experiment: PARP-1 autoparsylation assay (HTRF); format: biochemical; details: His-tagged Parp-1, autoparsylation HTRF
T1 construct: purchased Enzo Life Sciences GmbH, Lörrach, Germany
In short: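 HTRF emission ratio reports biotin-ADP-ribose self-transfer onto His-tagged PARP-1, with biotinylated NAD/NAD as co-substrate, sensed via cryptate anti-His and Xlent-streptavidin.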

TNKS2 = biological target: T2, TNKS2 (Homo sapiens, UniProt Q9H2K2); experiment: TNKS2 activity ELISA (autoparsylation assay); format: biochemical; details: for IC50: GST-tagged Tnks-2 (873-1166 aa), read-out: IC50 [M] TNKS2 ELISA
T2 construct: GST-tagged Tnks-2 (873-1166 aa, prepared in-house); made in house
In short: (§1)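 Autoparsylation ELISA: biotinylated NAD serves as co-substrate for plate-bound GST-TNKS1/TNKS2, incubated with test compounds. Readout is HRP luminescence after streptavidin-HRP binding, referenced to the no-inhibitor reaction, from which IC50 values are derived.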

TNKS1 = biological target: T3, TNKS1 (Homo sapiens, UniProt O95271); experiment: TNKS1 activity ELISA (autoparsylation assay); format: biochemical; details: GST-tagged Tnks-1 (1023-1327 aa)
T3 construct: GST-tagged Tnks-1 (1023-1327 aa, prepared in-house); made in house
In short: as §1

Tankyrases = details: read-out: EC50 [M] TNKS cellular assay; DLD1 cells, 24 hours, Axin2 increase

T3 sequence (O95271 1023-1327): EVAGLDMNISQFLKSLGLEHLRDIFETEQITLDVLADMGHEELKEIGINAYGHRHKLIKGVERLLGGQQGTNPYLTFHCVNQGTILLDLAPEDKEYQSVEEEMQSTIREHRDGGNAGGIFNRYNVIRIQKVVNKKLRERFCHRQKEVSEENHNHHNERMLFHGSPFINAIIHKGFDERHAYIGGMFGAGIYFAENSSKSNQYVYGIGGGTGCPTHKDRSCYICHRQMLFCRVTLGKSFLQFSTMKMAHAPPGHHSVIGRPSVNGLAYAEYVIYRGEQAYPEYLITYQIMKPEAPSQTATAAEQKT
T1 sequence (P09874 whole entry): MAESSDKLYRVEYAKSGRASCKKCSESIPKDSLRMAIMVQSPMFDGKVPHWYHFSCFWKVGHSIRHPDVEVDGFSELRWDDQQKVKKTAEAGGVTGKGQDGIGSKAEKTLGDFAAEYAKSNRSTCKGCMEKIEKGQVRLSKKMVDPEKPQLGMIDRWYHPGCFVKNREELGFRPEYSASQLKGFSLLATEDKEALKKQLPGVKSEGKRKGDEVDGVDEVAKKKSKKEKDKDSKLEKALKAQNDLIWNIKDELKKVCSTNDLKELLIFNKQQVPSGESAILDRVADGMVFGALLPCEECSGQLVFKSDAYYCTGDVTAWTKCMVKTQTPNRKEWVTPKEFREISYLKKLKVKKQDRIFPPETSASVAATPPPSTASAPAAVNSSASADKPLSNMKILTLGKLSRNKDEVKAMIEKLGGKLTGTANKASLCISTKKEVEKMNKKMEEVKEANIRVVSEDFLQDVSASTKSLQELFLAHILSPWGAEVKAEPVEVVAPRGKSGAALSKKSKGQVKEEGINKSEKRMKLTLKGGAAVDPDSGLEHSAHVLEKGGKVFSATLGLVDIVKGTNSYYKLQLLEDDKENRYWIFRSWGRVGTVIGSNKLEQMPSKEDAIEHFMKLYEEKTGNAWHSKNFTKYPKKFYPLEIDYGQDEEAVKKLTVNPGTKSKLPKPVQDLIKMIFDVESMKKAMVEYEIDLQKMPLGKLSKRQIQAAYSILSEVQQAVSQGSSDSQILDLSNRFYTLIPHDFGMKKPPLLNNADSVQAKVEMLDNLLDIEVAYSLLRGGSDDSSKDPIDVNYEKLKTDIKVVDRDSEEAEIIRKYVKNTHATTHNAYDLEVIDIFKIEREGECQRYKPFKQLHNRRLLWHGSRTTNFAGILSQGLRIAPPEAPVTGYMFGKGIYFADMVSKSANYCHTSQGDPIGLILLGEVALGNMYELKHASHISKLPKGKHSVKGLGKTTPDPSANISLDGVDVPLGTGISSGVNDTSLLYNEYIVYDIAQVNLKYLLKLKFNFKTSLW
T2 sequence (Q9H2K2 873-1166): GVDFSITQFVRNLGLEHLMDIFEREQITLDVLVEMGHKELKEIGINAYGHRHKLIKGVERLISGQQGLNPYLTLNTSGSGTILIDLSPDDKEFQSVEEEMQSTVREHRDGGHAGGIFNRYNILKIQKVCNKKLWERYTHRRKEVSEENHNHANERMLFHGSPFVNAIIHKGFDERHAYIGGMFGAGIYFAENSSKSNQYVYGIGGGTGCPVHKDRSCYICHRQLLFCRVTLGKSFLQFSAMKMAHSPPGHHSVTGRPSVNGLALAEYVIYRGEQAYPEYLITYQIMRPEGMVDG

SMILES | IC50 (PARP-1) | IC50 (TNKS2) | IC50 (TNKS1) | EC50 (Tankyrases) | pIC50 (TNKS2)
Cc1scc2c(=O)[nH]c(CCCC(=O)N3CCC(C(=O)c4ccc(C(C)(C)O)cc4)CC3)nc12 [Compound C121, 2-(4-{4-[4-(1-Hydroxy-1-methyl-ethyl)-benzoyl]-piperidin-1-yl}-4-oxo-butyl)-7-methyl-3H-thieno[3,4-d]pyrimidin-4-one] | 3100 nM | 2.4e-09 M | 4.7 nM | 6.8e-08 M | 
Cc1ncc2c(=O)[nH]c(CCCC(=O)N3CCC(C(=O)c4cnn(C)c4)CC3)cn12 [Compound C105, 3-Methyl-6-{4-[4-(1-methyl-1H-pyrazole-4-carbonyl)-piperidin-1-yl]-4-oxo-butyl}-7H-imidazo[1,5-a]pyrazin-8-one] | 29000 nM | 5.7e-10 M | 0.43 nM | 3.9e-07 M | 
COc1ccc(C(=O)C2CCN(C(=O)CCCc3cn4cccc4c(=O)[nH]3)CC2)cn1 [Compound C15, 3-{4-[4-(6-Methoxy-pyridine-3-carbonyl)-piperidin-1-yl]-4-oxo-butyl}-2H-pyrrolo[1,2-a]pyrazin-1-one] | 1700 nM | 1.7e-10 M | 0.23 nM | 1.5e-09 M | 
CCn1cc(C(=O)C2CCN(C(=O)CCCc3nn4cc(C)cc4c(=O)[nH]3)CC2)cn1 [Compound C233, 2-{4-[4-(1-Ethyl-1H-pyrazole-4-carbonyl)-piperidin-1-yl]-4-oxo-butyl}-6-methyl-3H-pyrrolo[2,1-f][1,2,4]triazin-4-one] | 5300 nM | 2.3e-09 M | 1.2 nM | 5.4e-08 M | 
Cn1cc(C(=O)C2CCN(C(=O)CCCc3nc4c(ccn4C)c(=O)[nH]3)CC2)cn1 [Compound C190, 7-Methyl-2-{4-[4-(1-methyl-1H-pyrazole-4-carbonyl)-piperidin-1-yl]-4-oxo-butyl}-3,7-dihydro-pyrrolo[2,3-d]pyrimidin-4-one] | 870 nM | 3.2e-10 M | 0.71 nM | 1.9e-07 M | 
COc1ccc(C(=O)C2CCN(C(=O)CCCc3nn4c(C)ccc4c(=O)[nH]3)CC2)cc1 [Compound C37, 2-{4-[4-(4-Methoxybenzoyl)-piperidin-1-yl]-4-oxo-butyl}-7-methyl-3H-pyrrolo[2,1-f][1,2,4]triazin-4-one] | 620 nM | < 1e-10 M | < 0.1 nM | 1e-09 M | 
COc1ccc(C(=O)C2CCN(C(=O)CCCc3cn4nc(C)cc4c(=O)[nH]3)CC2)cn1 [Compound C231, 6-{4-[4-(6-Methoxy-pyridine-3-carbonyl)-piperidin-1-yl]-4-oxo-butyl}-2-methyl-5H-pyrazolo[1,5-a]pyrazin-4-one] | 4500 nM | 5.4e-10 M | 0.36 nM | 5.4e-09 M | 
N#Cc1ccc(OC2CCN(C(=O)CCCc3nc4c(c(=O)[nH]3)COCC4)CC2)cc1 [Compound C197, 4-{1-[4-(4-Oxo-3,5,7,8-tetrahydro-4H-pyrano[4,3-d]pyrimidin-2-yl)-butyryl]-piperidin-4-yloxy}-benzonitrile] | 3200 nM | 2.4e-07 M | 560 nM | 3.6e-06 M | 
COc1ccc(C(=O)C2CCN(C(=O)CCCc3nn4c(C)ccc4c(=O)[nH]3)CC2)cc1C [Compound C154, 2-{4-[4-(4-Methoxy-3-methyl-benzoyl)-piperidin-1-yl]-4-oxo-butyl}-7-methyl-3H-pyrrolo[2,1-f][1,2,4]triazin-4-one] | 610 nM | 1.3e-10 M | 0.16 nM | 9.7e-10 M | 
Cn1cc(C(=O)C2CCN(C(=O)CCCc3cn4cc(F)cc4c(=O)[nH]3)CC2)cn1 [Compound C78, 7-Fluoro-3-{4-[4-(1-methyl-1H-pyrazole-4-carbonyl)-piperidin-1-yl]-4-oxo-butyl}-2H-pyrrolo[1,2-a]pyrazin-1-one] | 1200 nM | 1.6e-10 M | 0.24 nM | 2.9e-09 M | 
Cn1cc(C(=O)C2CCN(C(=O)CCCc3nn4c(F)c(F)cc4c(=O)[nH]3)CC2)cn1 [Compound C238, 6,7-Difluoro-2-{4-[4-(1-methyl-1H-pyrazole-4-carbonyl)-piperidin-1-yl]-4-oxo-butyl}-3H-pyrrolo[2,1-f][1,2,4]triazin-4-one] | 4100 nM | 1.5e-09 M | 1.5 nM | 5.6e-08 M | 
Cn1ccc2c(=O)[nH]c(CCCC(=O)N3CCC(C(=O)c4ccc(C(C)(F)F)cc4)CC3)nc21 [Compound C249, 2-(4-{4-[4-(1,1-Difluoro-ethyl)-benzoyl]-piperidin-1-yl}-4-oxo-butyl)-7-methyl-3,7-dihydro-pyrrolo[2,3-d]pyrimidin-4-one] | 1100 nM | 1.2e-10 M | 0.42 nM | 1.8e-09 M | 
O=C(CCCc1nn2cc(F)cc2c(=O)[nH]1)N1CCC(c2nnc(-c3ccccc3)o2)CC1 [Compound C173, 6-Fluoro-2-{4-oxo-4-[4-(5-phenyl-[1,3,4]oxadiazol-2-yl)-piperidin-1-yl]-butyl}-3H-pyrrolo[2,1-f][1,2,4]triazin-4-one] | 3200 nM | 1.4e-08 M | 15 nM | 8.5e-08 M | 
COc1ccc(C(=O)C2CCN(C(=O)CCCc3cn4c(C)ccc4c(=O)[nH]3)CC2)cn1 [Compound C57, 3-{4-[4-(6-Methoxy-pyridine-3-carbonyl)-piperidin-1-yl]-4-oxo-butyl}-6-methyl-2H-pyrrolo[1,2-a]pyrazin-1-one] | 0.48 nM |  | 0.19 nM | 7.7e-10 M | 9.74
CCn1cc(C(=O)C2CCN(C(=O)CCCc3nc4c(C)scc4c(=O)[nH]3)CC2)cn1 [Compound C216, 2-{4-[4-(1-Ethyl-1H-pyrazole-4-carbonyl)-piperidin-1-yl]-4-oxo-butyl}-7-methyl-3H-thieno[3,4-d]pyrimidin-4-one] | 1500 nM | 1.3e-09 M | 2.5 nM | 5.2e-08 M | 
Cc1scc2c(=O)[nH]c(CCCC(=O)N3CCC(C(=O)c4cnn(C)c4)CC3)nc12 [Compound C123, 7-Methyl-2-{4-[4-(1-methyl-1H-pyrazole-4-carbonyl)-piperidin-1-yl]-4-oxo-butyl}-3H-thieno[3,4-d]pyrimidin-4-one] | 1200 nM | 5.7e-10 M | 0.67 nM | 3.4e-09 M | 
Cn1cc(C(=O)C2CCN(C(=O)CCCc3nc4c(c(=O)[nH]3)COCC4)CC2)cn1 [Compound C202, 2-{4-[4-(1-Methyl-1H-pyrazole-4-carbonyl)-piperidin-1-yl]-4-oxo-butyl}-3,5,7,8-tetrahydro-pyrano[4,3-d]pyrimidin-4-one] | 18000 nM | 3.1e-09 M | 8.1 nM | 2.2e-06 M | 
COc1ccc(C(=O)C2CCN(C(=O)CCCc3nc4c(C)csc4c(=O)[nH]3)CC2)cc1F [Compound C55, 2-{4-[4-(3-Fluoro-4-methoxy-benzoyl)-piperidin-1-yl]-4-oxo-butyl}-7-methyl-3H-thieno[3,2-d]pyrimidin-4-one] | 400 nM | 1.2e-10 M | 0.18 nM | 1.9e-09 M | 
COc1ccc(C(=O)C2CCN(C(=O)CCCc3nc4c(c(=O)[nH]3)COCC4)CC2)cc1F [Compound C192, 2-{4-[4-(3-Fluoro-4-methoxy-benzoyl)-piperidin-1-yl]-4-oxo-butyl}-3,5,7,8-tetrahydro-pyrano[4,3-d]pyrimidin-4-one] | 12000 nM | 2.1e-09 M | 5.6 nM | 4.9e-08 M | 
N#Cc1ccc(OC2CCN(C(=O)CCCc3nn4cc(F)cc4c(=O)[nH]3)CC2)cc1 [Compound C174, 4-{1-[4-(6-Fluoro-4-oxo-3,4-dihydro-pyrrolo[2,1-f][1,2,4]triazin-2-yl)-butyryl]-piperidin-4-yloxy}-benzonitrile] | 270 nM | 4.9e-08 M | 64 nM | 7.8e-07 M | 
O=C(c1ccc(F)cc1)C1CCN(C(=O)CCCc2nn3cc(F)cc3c(=O)[nH]2)CC1 [Compound C175, 6-Fluoro-2-{4-[4-(4-fluoro-benzoyl)-piperidin-1-yl]-4-oxo-butyl}-3H-pyrrolo[2,1-f][1,2,4]triazin-4-one] | 4900 nM | 8.1e-10 M | 0.47 nM | 3.7e-08 M | 
COc1ccc(C(=O)C2CCN(C(=O)CCCc3nc(C)c(C)c(=O)[nH]3)CC2)cc1 [Compound C239, 2-{4-[4-(4-Methoxy-benzoyl)-piperidin-1-yl]-4-oxo-butyl}-5,6-dimethyl-3H-pyrimidin-4-one] | 24000 nM | 8.2e-10 M | 2.6 nM | 1.5e-08 M | 
N#Cc1ccc(OC2CCN(C(=O)CCCc3nn4cccc4c(=O)[nH]3)CC2)cc1 [Compound C141, 4-{1-[4-(4-Oxo-3,4-dihydro-pyrrolo[2,1-f][1,2,4]triazin-2-yl)-butyryl]-piperidin-4-yloxy}-benzonitrile] | 2600 nM | 6.5e-08 M | 100 nM | 6.8e-07 M | 
N#Cc1cc(C2CCN(C(=O)CCCc3nn4cc(F)cc4c(=O)[nH]3)CC2)cnc1N [Compound C171, 6-Amino-1′-[4-(6-fluoro-4-oxo-3,4-dihydro-pyrrolo[2,1-f][1,2,4]triazin-2-yl)-butyryl]-1′,2′,3′,4′,5′,6′-hexahydro-[3,4′]bipyridinyl-5-carbonitrile] | 6300 nM | 3.6e-09 M | 1.7 nM | 4.6e-08 M | 
COc1ccc(C(=O)C2CCN(C(=O)CCCc3nc4c(C)scc4c(=O)[nH]3)CC2)cc1 [Compound C34, 2-{4-[4-(4-Methoxy-benzoyl)-piperidin-1-yl]-4-oxo-butyl}-7-methyl-3H-thieno[3,4-d]pyrimidin-4-one] | 1100 nM | 3.3e-10 M | 0.54 nM | 4.8e-09 M | 
